Results as given in PubChem BioAssay (NCI).
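Five compound concentrations were applied to cells in 96-well plates for 48 hours; endpoints were derived by simple linear interpolation of the resulting dose-response curve. GI50: concentration for 50% inhibition of growth. The concentration for full growth arrest is given as TGI.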

Experiments:
Experiment in all cases: growth of human tumour cells (NCI), 48 h
786-0 renal = tested on: 786-0 renal
A498 renal = tested on: A498 renal
A549 NSCLC = tested on: A549 NSCLC
ACHN renal = tested on: ACHN renal
BT-549 breast = tested on: BT-549 breast
CAKI-1 renal = tested on: CAKI-1 renal
CCRF-CEM leukemia = tested on: CCRF-CEM leukemia
COLO 205 colon = tested on: COLO 205 colon
DU-145 prostate = tested on: DU-145 prostate
EKVX NSCLC = tested on: EKVX NSCLC
HCC-2998 colon = tested on: HCC-2998 colon
HCT-116 colon = tested on: HCT-116 colon
HCT-15 colon = tested on: HCT-15 colon
HL-60(TB) leukemia = tested on: HL-60(TB) leukemia
HOP-62 NSCLC = tested on: HOP-62 NSCLC
HOP-92 NSCLC = tested on: HOP-92 NSCLC
HS 578T breast = tested on: HS 578T breast
HT29 colon = tested on: HT29 colon
IGROV1 ovarian = tested on: IGROV1 ovarian
K-562 leukemia = tested on: K-562 leukemia
KM12 colon = tested on: KM12 colon
LOX IMVI melanoma = tested on: LOX IMVI melanoma
M14 melanoma = tested on: M14 melanoma
MALME-3M melanoma = tested on: MALME-3M melanoma
MCF7 breast = tested on: MCF7 breast
MDA-MB-231 breast = tested on: MDA-MB-231 breast
MDA-MB-435 = tested on: MDA-MB-435
MOLT-4 leukemia = tested on: MOLT-4 leukemia
NCI-H226 lung = tested on: NCI-H226 lung
NCI-H23 lung = tested on: NCI-H23 lung
NCI-H460 lung = tested on: NCI-H460 lung
NCI-H522 lung = tested on: NCI-H522 lung
NCI/ADR-RES ovarian = tested on: NCI/ADR-RES ovarian
OVCAR-3 ovarian = tested on: OVCAR-3 ovarian
OVCAR-4 ovarian = tested on: OVCAR-4 ovarian
OVCAR-5 ovarian = tested on: OVCAR-5 ovarian
OVCAR-8 ovarian = tested on: OVCAR-8 ovarian
PC-3 prostate = tested on: PC-3 prostate
RPMI-8226 leukemia = tested on: RPMI-8226 leukemia
SF-268 CNS = tested on: SF-268 CNS
SF-295 CNS = tested on: SF-295 CNS
SF-539 CNS = tested on: SF-539 CNS
SK-MEL-2 melanoma = tested on: SK-MEL-2 melanoma
SK-MEL-28 melanoma = tested on: SK-MEL-28 melanoma
SK-MEL-5 melanoma = tested on: SK-MEL-5 melanoma
SK-OV-3 ovarian = tested on: SK-OV-3 ovarian
SN12C renal = tested on: SN12C renal
SNB-19 CNS = tested on: SNB-19 CNS
SNB-75 CNS = tested on: SNB-75 CNS
SR leukemia = tested on: SR leukemia
SW-620 colon = tested on: SW-620 colon
T-47D breast = tested on: T-47D breast
TK-10 renal = tested on: TK-10 renal
UACC-257 melanoma = tested on: UACC-257 melanoma
UACC-62 melanoma = tested on: UACC-62 melanoma
UO-31 renal = tested on: UO-31 renal

`CN(C)CCCOc1ccc(C(=C(c2ccccc2)C2CCCC2)c2ccc(OCCCN(C)C)cc2)cc1` showed a GI50 (786-0 renal) of 2.62 µM, a TGI (786-0 renal) of 8.3 µM and a GI50 (A498 renal) of 13.8 µM. For the same molecule, the TGI (A498 renal) was 28.5 µM, the GI50 (A549 NSCLC) was 3.47 µM and the TGI (A549 NSCLC) was 16.6 µM. For the same molecule, the GI50 (ACHN renal) was 2.12 µM, the TGI (ACHN renal) was 4.7 µM and the GI50 (BT-549 breast) was 15.3 µM. For the same molecule, the TGI (BT-549 breast) was 30.8 µM, the GI50 (CAKI-1 renal) was 3.62 µM and the TGI (CAKI-1 renal) was 13.6 µM. The GI50 (CCRF-CEM leukemia) was 2.58 µM, the TGI (CCRF-CEM leukemia) was 6.85 µM and the GI50 (COLO 205 colon) was 1.71 µM. The TGI (COLO 205 colon) was 3.62 µM, the GI50 (DU-145 prostate) was 4.43 µM and the TGI (DU-145 prostate) was 15.2 µM. The GI50 (EKVX NSCLC) was 7.43 µM, the TGI (EKVX NSCLC) was 21.3 µM and the GI50 (HCC-2998 colon) was 1.93 µM. The TGI (HCC-2998 colon) was 3.91 µM, the GI50 (HCT-116 colon) was 1.89 µM and the TGI (HCT-116 colon) was 4.13 µM. It also gave a GI50 (HCT-15 colon) of 1.67 µM, a TGI (HCT-15 colon) of 3.22 µM and a GI50 (HL-60(TB) leukemia) of 2.03 µM. It also gave a TGI (HL-60(TB) leukemia) of 4.44 µM, a GI50 (HOP-62 NSCLC) of 14.6 µM and a TGI (HOP-62 NSCLC) of 32.6 µM. For the same molecule, the GI50 (HOP-92 NSCLC) was 2.72 µM, the TGI (HOP-92 NSCLC) was 15.2 µM and the GI50 (HS 578T breast) was 2.13 µM. For the same molecule, the TGI (HS 578T breast) was 5.53 µM, the GI50 (HT29 colon) was 1.97 µM and the TGI (HT29 colon) was 3.97 µM. The GI50 (IGROV1 ovarian) was 2.07 µM, the TGI (IGROV1 ovarian) was 4.58 µM and the GI50 (K-562 leukemia) was 2.02 µM. It also gave a TGI (K-562 leukemia) of 5.26 µM, a GI50 (KM12 colon) of 3.56 µM and a TGI (KM12 colon) of 13.1 µM. For the same molecule, the GI50 (LOX IMVI melanoma) was 1.63 µM, the TGI (LOX IMVI melanoma) was 2.99 µM and the GI50 (M14 melanoma) was 1.85 µM. The TGI (M14 melanoma) was 3.74 µM, the GI50 (MALME-3M melanoma) was 1.64 µM and the TGI (MALME-3M melanoma) was 3.01 µM. For the same molecule, the GI50 (MCF7 breast) was 1.33 µM, the TGI (MCF7 breast) was 2.69 µM and the GI50 (MDA-MB-231 breast) was 1.74 µM. It also gave a TGI (MDA-MB-231 breast) of 3.22 µM, a GI50 (MDA-MB-435) of 1.7 µM and a TGI (MDA-MB-435) of 3.09 µM. The GI50 (MOLT-4 leukemia) was 2.56 µM, the TGI (MOLT-4 leukemia) was 6.34 µM and the GI50 (NCI-H226 lung) was 2.81 µM. For the same molecule, the TGI (NCI-H226 lung) was 11.4 µM, the GI50 (NCI-H23 lung) was 4.95 µM and the TGI (NCI-H23 lung) was 17.5 µM. The GI50 (NCI-H460 lung) was 1.69 µM, the TGI (NCI-H460 lung) was 3.16 µM and the GI50 (NCI-H522 lung) was 1.55 µM. For the same molecule, the TGI (NCI-H522 lung) was 3.12 µM, the GI50 (NCI/ADR-RES ovarian) was 2.85 µM and the GI50 (OVCAR-3 ovarian) was 2.16 µM. The TGI (OVCAR-3 ovarian) was 5.19 µM, the GI50 (OVCAR-4 ovarian) was 1.91 µM and the TGI (OVCAR-4 ovarian) was 4.34 µM. The GI50 (OVCAR-5 ovarian) was 1.85 µM, the TGI (OVCAR-5 ovarian) was 4.68 µM and the GI50 (OVCAR-8 ovarian) was 1.98 µM. For the same molecule, the TGI (OVCAR-8 ovarian) was 4.87 µM, the GI50 (PC-3 prostate) was 3.26 µM and the TGI (PC-3 prostate) was 14.2 µM. It also gave a GI50 (RPMI-8226 leukemia) of 2.17 µM, a TGI (RPMI-8226 leukemia) of 5.75 µM and a GI50 (SF-268 CNS) of 2.51 µM. For the same molecule, the TGI (SF-268 CNS) was 7.16 µM, the GI50 (SF-295 CNS) was 1.85 µM and the TGI (SF-295 CNS) was 3.98 µM. The GI50 (SF-539 CNS) was 1.69 µM, the TGI (SF-539 CNS) was 3.06 µM and the GI50 (SK-MEL-2 melanoma) was 11.6 µM. The TGI (SK-MEL-2 melanoma) was 24.1 µM, the GI50 (SK-MEL-28 melanoma) was 1.62 µM and the TGI (SK-MEL-28 melanoma) was 3.01 µM. The GI50 (SK-MEL-5 melanoma) was 12.1 µM, the TGI (SK-MEL-5 melanoma) was 24.5 µM and the GI50 (SK-OV-3 ovarian) was 17.1 µM. For the same molecule, the TGI (SK-OV-3 ovarian) was 33 µM, the GI50 (SN12C renal) was 1.64 µM and the TGI (SN12C renal) was 3.04 µM. It also gave a GI50 (SNB-19 CNS) of 2.15 µM, a TGI (SNB-19 CNS) of 5.67 µM and a GI50 (SNB-75 CNS) of 9.08 µM. It also gave a TGI (SNB-75 CNS) of 22.1 µM, a GI50 (SR leukemia) of 2 µM and a TGI (SR leukemia) of 7.36 µM. It also gave a GI50 (SW-620 colon) of 1.58 µM, a TGI (SW-620 colon) of 3.02 µM and a GI50 (T-47D breast) of 9.86 µM. It also gave a TGI (T-47D breast) of 25.3 µM, a GI50 (TK-10 renal) of 14.6 µM and a TGI (TK-10 renal) of 28.9 µM. It also gave a GI50 (UACC-257 melanoma) of 10.7 µM, a TGI (UACC-257 melanoma) of 24.1 µM and a GI50 (UACC-62 melanoma) of 1.6 µM. It also gave a TGI (UACC-62 melanoma) of 2.98 µM, a GI50 (UO-31 renal) of 1.54 µM and a TGI (UO-31 renal) of 3.08 µM.
